Key:
[1] = system: CASOB (Sicklepod); assay: Postemergence herbicidal evaluation; type: in vivo, Cassia obtusifolia; settings: for CASOB herbicidal rating: postemergence
Summary of the method: (§1)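 Two-week seedlings sprayed postemergence at 40 psi; formulation: 1:1 acetone/water, 0.5% TWEEN 20; application ≈0.0156–0.500 kg/ha. Greenhouse grow-out, then 0–9 visual scoring at 4–5 weeks.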

[2] = system: CHEAL (Lambsquarters, Common); assay: Postemergence herbicidal evaluation; type: in vivo, Chenopodium album; settings: for CHEAL herbicidal rating: postemergence
Summary of the method: as §1

[3] = system: ECHCG (Barnyardgrass); assay: Postemergence herbicidal evaluation; type: in vivo, Echinochloa crus-galli; settings: for ECHCG herbicidal rating: postemergence
Summary of the method: as §1

[4] = system: ORYSAT (Rice, Tebonnet); assay: Postemergence herbicidal evaluation; type: in vivo, Oryza sativa, (L.) Tebonnet; settings: for ORYSAT herbicidal rating: postemergence
Summary of the method: as §1

[5] = system: GALAP (Galium); assay: Preemergence herbicidal evaluation; type: in vivo, Galium aparine; settings: rated 4-5 weeks after treatment
Summary of the method: (§2)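 Seeds were planted in potting soil in cups, then sprayed preemergence with the test compound in aqueous acetone at about 0.0156 to 0.500 kg per hectare. Cups were kept under greenhouse conditions and visually rated 4–5 weeks after treatment on a 0–9 scale against an untreated control.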

[6] = system: SETVI (Foxtail, Green); assay: Preemergence herbicidal evaluation; type: in vivo, Setaria viridis; settings: rated 4-5 weeks after treatment
Summary of the method: as §2

[7] = system: GLXMAW (Soybean, Williams); assay: Preemergence herbicidal evaluation; type: in vivo, Glycine max, (L.) Merr. cv Williams; settings: rated 4-5 weeks after treatment
Summary of the method: as §2

[8] = system: ORYSAT (Rice, Tebonnet); assay: Preemergence herbicidal evaluation; type: in vivo, Oryza sativa, (L.) Tebonnet; settings: rated 4-5 weeks after treatment
Summary of the method: as §2

[9] = system: TRZAWR (Wheat, Winter, cv Riband); assay: Preemergence herbicidal evaluation; type: in vivo, Triticum aestivum; settings: rated 4-5 weeks after treatment
Summary of the method: as §2

[10] = system: ZEAMX (Corn, Field); assay: Preemergence herbicidal evaluation; type: in vivo, Zea mays; settings: rated 4-5 weeks after treatment
Summary of the method: as §2

[11] = system: CYPIR (Rice Flatsedge); assay: Preemergence weed control under flooded paddy conditions; type: in vivo, Cyperus iria; settings: rated 3-4 weeks after treatment
Summary of the method: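 Seeds or propagules sown in silt loam kept flooded 1.5-3 cm; compounds in 50/50 acetone/water pipetted into flood water at about 0.0313 to 0.500 kg/ha. Greenhouse; visual 0-9 rating versus untreated control 3-4 weeks after treatment.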

[12] = system: MOOVA (Monochoria); assay: as above; type: in vivo, Monochoria vaginalis; settings: rated 3-4 weeks after treatment
Summary of the method: (§3)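 Flooded-pot preemergence screen with silt loam and seeds in the upper 0.5 cm. Dose about 0.0313 to 0.500 kg/ha, delivered into flood water; visual 0-9 score after 3 to 4 weeks.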

[13] = system: SAGPY (Arrowhead (Pygmaea)); assay: as above; type: in vivo, Sagittaria pygmaea; settings: rated 3-4 weeks after treatment
Summary of the method: as §3

[14] = system: CYPSE (Flatsedge); assay: Postemergence weed control under flooded paddy conditions; type: in vivo, Cyperus serotinus; settings: postemergence weeds, 3-4 weeks after treatment
Summary of the method: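 Containers holding 3–5 cm weeds and rice at 1.5–2.5 leaves are flooded to 1.5–3 cm above soil. Compound in 50/50 v/v aqueous/acetone is then added directly to the water, about 0.0313–0.500 kg/ha. Plants are kept in the greenhouse and rated 0–9 visually at 3–4 weeks.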

In the case of `CC1SC(=Nc2cc(-n3c(=O)cc(C(F)(F)F)n(C)c3=O)c(F)cc2Cl)N(C)C1=O` (stereo not drawn) [Compound 9], the CASOB herbicidal rating ([1]; rate 0.0156 kg/ha) was 0.0, the CASOB herbicidal rating ([1]; rate 0.0313 kg/ha) was 1.0 and the CASOB herbicidal rating ([1]; rate 0.0625 kg/ha) was 2.0. It also gave a CASOB herbicidal rating ([1]; rate 0.1250 kg/ha) of 4.5, a CHEAL herbicidal rating ([2]; rate 0.0156 kg/ha) of 6.5 and a CHEAL herbicidal rating ([2]; rate 0.0313 kg/ha) of 6.0. For the same compound, the CHEAL herbicidal rating ([2]; rate 0.0625 kg/ha) was 9.0, the CHEAL herbicidal rating ([2]; rate 0.1250 kg/ha) was 9.0 and the ECHCG herbicidal rating ([3]; rate 0.0156 kg/ha) was 0.0. The ECHCG herbicidal rating ([3]; rate 0.0313 kg/ha) was 0.0, the ECHCG herbicidal rating ([3]; rate 0.0625 kg/ha) was 2.0 and the ECHCG herbicidal rating ([3]; rate 0.1250 kg/ha) was 4.5. The ORYSAT herbicidal rating ([4]; rate 0.0156 kg/ha) was 2.0, the ORYSAT herbicidal rating ([4]; rate 0.0313 kg/ha) was 2.3 and the ORYSAT herbicidal rating ([4]; rate 0.0625 kg/ha) was 3.0. For the same compound, the ORYSAT herbicidal rating ([4]; rate 0.1250 kg/ha) was 3.5, the “GALAP preemergence herbicidal rating” value ([5]; rate 0.0156 kg/ha) was 1.0 and the “GALAP preemergence herbicidal rating” value ([5]; rate 0.0313 kg/ha) was 4.5. For the same compound, the “GALAP preemergence herbicidal rating” value ([5]; rate 0.0625 kg/ha) was 9.0, the “GALAP preemergence herbicidal rating” value ([5]; rate 0.1250 kg/ha) was 9.0 and the “GALAP preemergence herbicidal rating” value ([5]; rate 0.2500 kg/ha) was 9.0. The “SETVI preemergence herbicidal rating” value ([6]; rate 0.0156 kg/ha) was 8.3, the “SETVI preemergence herbicidal rating” value ([6]; rate 0.0313 kg/ha) was 9.0 and the “SETVI preemergence herbicidal rating” value ([6]; rate 0.0625 kg/ha) was 9.0. For the same compound, the “SETVI preemergence herbicidal rating” value ([6]; rate 0.1250 kg/ha) was 9.0, the “SETVI preemergence herbicidal rating” value ([6]; rate 0.2500 kg/ha) was 9.0 and the “GLXMAW preemergence herbicidal rating” value ([7]; rate 0.0156 kg/ha) was 4.0. For the same compound, the “GLXMAW preemergence herbicidal rating” value ([7]; rate 0.0313 kg/ha) was 6.0, the “GLXMAW preemergence herbicidal rating” value ([7]; rate 0.0625 kg/ha) was 6.3 and the “GLXMAW preemergence herbicidal rating” value ([7]; rate 0.1250 kg/ha) was 8.7. For the same compound, the “GLXMAW preemergence herbicidal rating” value ([7]; rate 0.2500 kg/ha) was 9.0, the “ORYSAT preemergence herbicidal rating” value ([8]; rate 0.0156 kg/ha) was 5.5 and the “ORYSAT preemergence herbicidal rating” value ([8]; rate 0.0313 kg/ha) was 8.5. The “ORYSAT preemergence herbicidal rating” value ([8]; rate 0.0625 kg/ha) was 7.5, the “ORYSAT preemergence herbicidal rating” value ([8]; rate 0.1250 kg/ha) was 9.0 and the “ORYSAT preemergence herbicidal rating” value ([8]; rate 0.2500 kg/ha) was 9.0. For the same compound, the “TRZAWR preemergence herbicidal rating” value ([9]; rate 0.0156 kg/ha) was 4.0, the “TRZAWR preemergence herbicidal rating” value ([9]; rate 0.0313 kg/ha) was 7.0 and the “TRZAWR preemergence herbicidal rating” value ([9]; rate 0.0625 kg/ha) was 7.5. For the same compound, the “TRZAWR preemergence herbicidal rating” value ([9]; rate 0.1250 kg/ha) was 9.0, the “TRZAWR preemergence herbicidal rating” value ([9]; rate 0.2500 kg/ha) was 9.0 and the “ZEAMX preemergence herbicidal rating” value ([10]; rate 0.0156 kg/ha) was 6.7. For the same compound, the “ZEAMX preemergence herbicidal rating” value ([10]; rate 0.0313 kg/ha) was 7.0, the “ZEAMX preemergence herbicidal rating” value ([10]; rate 0.0625 kg/ha) was 8.3 and the “ZEAMX preemergence herbicidal rating” value ([10]; rate 0.1250 kg/ha) was 8.7. For the same compound, the “ZEAMX preemergence herbicidal rating” value ([10]; rate 0.2500 kg/ha) was 8.7, the “Herbicidal rating CYPIR” value ([11]; 0.0313 kg/ha) was 0.0 and the “Herbicidal rating CYPIR” value ([11]; 0.0625 kg/ha) was 2.0. For the same compound, the “Herbicidal rating CYPIR” value ([11]; 0.1250 kg/ha) was 4.0, the “Herbicidal rating CYPIR” value ([11]; 0.2500 kg/ha) was 6.0 and the “Herbicidal rating MOOVA” value ([12]; 0.0313 kg/ha) was 9.0. The “Herbicidal rating MOOVA” value ([12]; 0.0625 kg/ha) was 9.0, the “Herbicidal rating MOOVA” value ([12]; 0.1250 kg/ha) was 9.0 and the “Herbicidal rating MOOVA” value ([12]; 0.2500 kg/ha) was 9.0. The “Herbicidal rating SAGPY” value ([13]; 0.0313 kg/ha) was 0.0, the “Herbicidal rating SAGPY” value ([13]; 0.0625 kg/ha) was 0.0 and the “Herbicidal rating SAGPY” value ([13]; 0.1250 kg/ha) was 1.0. For the same compound, the “Herbicidal rating SAGPY” value ([13]; 0.2500 kg/ha) was 2.0, the “Herbicidal rating CYPSE” value ([14]; rate 0.0313 kg/ha) was 0.0 and the “Herbicidal rating CYPSE” value ([14]; rate 0.0625 kg/ha) was 0.0. The “Herbicidal rating CYPSE” value ([14]; rate 0.1250 kg/ha) was 2.0 and the “Herbicidal rating CYPSE” value ([14]; rate 0.2500 kg/ha) was 7.0.

With `CCOC(=O)CN1C(=O)C(Cc2ccccc2OC(C)C(=O)OC)SC1=Nc1cc(-n2c(=O)cc(C(F)(F)F)n(C)c2=O)c(F)cc1Cl` (stereo not drawn) [Compound 50, 2-{{2-Chloro-5-[3,6-dihydro-3-methyl-2,6-dioxo-4-(trifluoromethyl)-1(2H)-pyrimidinyl]-4-fluoro-phenyl}imino}-5-(o-hydroxybenzyl)-4-oxo-3-thiazolidineacetic acid, ethyl ester, ester with methyl lactate] the “Postemergence herbicidal rating CASOB” value ([1]; Rate 0.0156 kg/ha) was 0.0, the “Postemergence herbicidal rating CASOB” value ([1]; Rate 0.0313 kg/ha) was 1.0 and the “Postemergence herbicidal rating CASOB” value ([1]; Rate 0.0625 kg/ha) was 2.0. For the same compound, the “Postemergence herbicidal rating CHEAL” value ([2]; Rate 0.0156 kg/ha) was 0.0, the “Postemergence herbicidal rating CHEAL” value ([2]; Rate 0.0313 kg/ha) was 3.0 and the “Postemergence herbicidal rating CHEAL” value ([2]; Rate 0.0625 kg/ha) was 5.0. The “Postemergence herbicidal rating ECHCG” value ([3]; Rate 0.0156 kg/ha) was 0.0, the “Postemergence herbicidal rating ECHCG” value ([3]; Rate 0.0313 kg/ha) was 0.0 and the “Postemergence herbicidal rating ECHCG” value ([3]; Rate 0.0625 kg/ha) was 2.0. For the same compound, the “Postemergence herbicidal rating ORYSAT” value ([4]; Rate 0.0156 kg/ha) was 1.0, the “Postemergence herbicidal rating ORYSAT” value ([4]; Rate 0.0313 kg/ha) was 1.0 and the “Postemergence herbicidal rating ORYSAT” value ([4]; Rate 0.0625 kg/ha) was 2.0. The “Preemergence herbicidal rating GALAP” value ([5]; rate 0.0625 kg/ha) was 0.0, the “Preemergence herbicidal rating GALAP” value ([5]; rate 0.1250 kg/ha) was 0.0 and the “Preemergence herbicidal rating GALAP” value ([5]; rate 0.2500 kg/ha) was 0.0. The “Preemergence herbicidal rating SETVI” value ([6]; rate 0.0625 kg/ha) was 0.0, the “Preemergence herbicidal rating SETVI” value ([6]; rate 0.1250 kg/ha) was 0.0 and the “Preemergence herbicidal rating SETVI” value ([6]; rate 0.2500 kg/ha) was 0.0. For the same compound, the “Preemergence herbicidal rating GLXMAW” value ([7]; rate 0.0625 kg/ha) was 0.0, the “Preemergence herbicidal rating GLXMAW” value ([7]; rate 0.1250 kg/ha) was 0.0 and the “Preemergence herbicidal rating GLXMAW” value ([7]; rate 0.2500 kg/ha) was 0.0. The “Preemergence herbicidal rating ORYSAT” value ([8]; rate 0.0625 kg/ha) was 0.0, the “Preemergence herbicidal rating ORYSAT” value ([8]; rate 0.1250 kg/ha) was 0.0 and the “Preemergence herbicidal rating ORYSAT” value ([8]; rate 0.2500 kg/ha) was 0.0. For the same compound, the “Preemergence herbicidal rating TRZAWR” value ([9]; rate 0.0625 kg/ha) was 0.0, the “Preemergence herbicidal rating TRZAWR” value ([9]; rate 0.1250 kg/ha) was 0.0 and the “Preemergence herbicidal rating TRZAWR” value ([9]; rate 0.2500 kg/ha) was 0.0. The “Preemergence herbicidal rating ZEAMX” value ([10]; rate 0.0625 kg/ha) was 0.0, the “Preemergence herbicidal rating ZEAMX” value ([10]; rate 0.1250 kg/ha) was 0.0 and the “Preemergence herbicidal rating ZEAMX” value ([10]; rate 0.2500 kg/ha) was 0.0. For the same compound, the “Herbicidal rating CYPIR” value ([11]; 0.0313 kg/ha) was 0.0, the “Herbicidal rating CYPIR” value ([11]; 0.0625 kg/ha) was 0.0 and the “Herbicidal rating CYPIR” value ([11]; 0.1250 kg/ha) was 0.0. The “Herbicidal rating CYPIR” value ([11]; 0.2500 kg/ha) was 0.0, the “Herbicidal rating MOOVA” value ([12]; 0.0313 kg/ha) was 0.0 and the “Herbicidal rating MOOVA” value ([12]; 0.0625 kg/ha) was 0.0. For the same compound, the “Herbicidal rating MOOVA” value ([12]; 0.1250 kg/ha) was 3.0, the “Herbicidal rating MOOVA” value ([12]; 0.2500 kg/ha) was 7.0 and the “Herbicidal rating SAGPY” value ([13]; 0.0313 kg/ha) was 2.0. The “Herbicidal rating SAGPY” value ([13]; 0.0625 kg/ha) was 2.0, the “Herbicidal rating SAGPY” value ([13]; 0.1250 kg/ha) was 3.0 and the “Herbicidal rating SAGPY” value ([13]; 0.2500 kg/ha) was 3.0. For the same compound, the “Herbicidal rating CYPSE” value ([14]; rate 0.0313 kg/ha) was 0.0, the “Herbicidal rating CYPSE” value ([14]; rate 0.0625 kg/ha) was 0.0 and the “Herbicidal rating CYPSE” value ([14]; rate 0.1250 kg/ha) was 0.0. The “Herbicidal rating CYPSE” value ([14]; rate 0.2500 kg/ha) was 0.0.
